The values that follow come from PubChem BioAssay (NCI).

Holding throughout (assay): NCI-60 cell line screen, 48 h
Experiment [1] concerns DU-145 prostate.
Experiment [2] relates to MDA-MB-435.
The subject of experiment [3] is HCC-2998 colon.
The test system of experiment [4] is SK-MEL-5 melanoma.
For experiment [5], the system named is MCF7 breast.
Experiment [6] has as its system K-562 leukemia.
The subject of experiment [7] is A498 renal.
In experiment [8] the test system is OVCAR-4 ovarian.

Structures are written as SMILES.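 Test compounds were applied to cells in 96-well plates for 48 hours at 5 doses. GI50 = concentration required for 50% inhibition of growth. The concentration for full growth arrest is given as TGI.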

Turning to `Clc1ccccc1[C@@H]1C[C@@H]2Cc3cc(Br)c4ccccc4c3N1O2`, the GI50 in experiment [1] is 5.59 µM; in experiment [2], 2080 nM; in experiment [3], 4.19 µM; in experiment [4], 2810 nM; in experiment [5], 3.61 µM; in experiment [6], 3.92 µM. Besides, the GI50 in experiment [7] was 3790 nM. For the same molecule, the TGI in experiment [1] is above 100 µM; in experiment [2], 20.4 µM; in experiment [3], above 100 µM; in experiment [4], 15.2 µM; in experiment [5] it was above 100 µM; in experiment [6] it was above 100 µM. In addition, in experiment [7], the TGI is 60.2 µM.
With `COc1cc(-c2nn(-c3cccc(NC(=O)NCCNS(=O)(=O)c4ccc(Cl)cc4)c3)cc2-c2ccncc2)ccc1Cl`, the GI50 in experiment [1] was 0.956 µM; in experiment [2] it was 207 nM; in experiment [3] it was 1.69 µM; in experiment [8], 1.03 µM; in experiment [4] it was 493 nM; in experiment [5] it was 0.363 µM. For the same molecule, the GI50 in experiment [7] was 578 nM. Also, the TGI in experiment [1] was above 100 µM; in experiment [2] it was 0.515 µM; in experiment [3] it was 5.09 µM; in experiment [8], 92 µM; in experiment [4], 1.83 µM; in experiment [5] it was above 100 µM. In experiment [7], the TGI amounted to 4.31 µM.
For the molecule `O=c1cc(-c2ccccc2)oc2ccc(OC/C(=N/O)c3ccc(F)cc3)cc12`, the GI50 was 3.1 µM in experiment [1]; 913 nM in experiment [2]; 4.41 µM in experiment [3]; 25.3 µM in experiment [8]; 1610 nM in experiment [4]; 2.61 µM in experiment [6]. In addition, the TGI was 15.6 µM in experiment [1]; 1.98 µM in experiment [2]; 12.5 µM in experiment [3]; above 50 µM in experiment [8]; 6.23 µM in experiment [4]; above 50 µM in experiment [6].
On to `O=C(O)C1CCN(Cc2oc(CO)cc(=O)c2O)C1` (configuration not stated), for which the TGI in experiment [1], in experiment [2], in experiment [8], in experiment [4], in experiment [5] and in experiment [6] was above 100 µM in each case. Moreover, the TGI in experiment [7] was above 100 µM.
Consider `O=C(O)/C=C/c1ccc[c]([Sb](=[O])([OH])[OH])c1`, for which the GI50 was above 100 µM in experiment [1]; above 100000 nM in experiment [2]; above 100 µM in experiment [3]; above 100 µM in experiment [8]; above 100000 nM in experiment [4]; above 100 µM in experiment [6]. For the same molecule, the GI50 in experiment [7] is above 100000 nM. The TGI in experiment [1], in experiment [2], in experiment [3], in experiment [8], in experiment [4] and in experiment [6] was above 100 µM in each case. For the same molecule, in experiment [7], the TGI is above 100 µM.
As for `Cc1ccc2[nH]c3c(c2c1)N=c1ccccc1=NO3`, the GI50 in experiment [1] is 34.6 µM; in experiment [2], above 100000 nM; in experiment [3], 81.7 µM; in experiment [8], 27.9 µM; in experiment [4], 40900 nM; in experiment [6], above 100 µM. Also, the TGI in experiment [1], in experiment [2], in experiment [3], in experiment [8], in experiment [4] and in experiment [6] was above 100 µM throughout.
`COc1cc(OC)cc(-c2nc3sccn3c2/C=N/N=C(N)N)c1`: the GI50 in experiment [2] is 8710 nM; in experiment [3] it was 7.55 µM; in experiment [4] it was 8340 nM; in experiment [5] it was 9.41 µM; in experiment [6] it was 9.7 µM; in experiment [7], 9860 nM. The TGI was determined as 16.1 µM in experiment [2]; 14.6 µM in experiment [3]; 15.2 µM in experiment [4]; 20.1 µM in experiment [5]; 19 µM in experiment [6]; 17.3 µM in experiment [7].
Regarding `O=C1OCC(c2ccc(O)cc2)=C1c1cc(O)c(O)c(O)c1`, the GI50 in experiment [1] was above 100 µM; in experiment [2], 26400 nM; in experiment [8], above 100 µM; in experiment [4], above 100000 nM; in experiment [5] it was 77.5 µM; in experiment [6], 82.2 µM. For the same molecule, in experiment [7], the GI50 is above 100000 nM. For the same molecule, the TGI is above 100 µM in experiment [1]; 53.8 µM in experiment [2]; above 100 µM in experiment [8]; above 100 µM in experiment [4]; above 100 µM in experiment [5]; above 100 µM in experiment [6]. In addition, the TGI in experiment [7] was above 100 µM.
Take `CCN(CC)CCCOc1ccc2ncnc(Nc3ccc(Oc4cccc(C(F)(F)F)c4)c(Cl)c3)c2c1`: the GI50 in experiment [1] was 1.39 µM; in experiment [2], 1650 nM; in experiment [3], 1.58 µM; in experiment [8] it was 1.54 µM; in experiment [6], 1.21 µM; in experiment [7], 229 nM. The TGI in experiment [1] was 2.74 µM; in experiment [2], 3.22 µM; in experiment [3], 3.09 µM; in experiment [8] it was 2.99 µM; in experiment [6], 8.73 µM; in experiment [7], 3.56 µM.
Take `COc1cc(OC)c(/C=C/C(=O)c2ccc(Nc3ncnc4ccccc34)cc2)c(OC)c1`: the GI50 was 1.45 µM in experiment [1]; 130 nM in experiment [2]; 1.94 µM in experiment [3]; 1.21 µM in experiment [8]; 426 nM in experiment [4]; 0.449 µM in experiment [5]. For the same molecule, the GI50 in experiment [7] was 282 nM. For the same molecule, the TGI in experiment [1] came out at 3.42 µM; in experiment [2], 0.522 µM; in experiment [3], 14.2 µM; in experiment [8], 3.05 µM; in experiment [4], 1.98 µM; in experiment [5] it was 2.59 µM. This molecule also had a TGI in experiment [7] of 2.13 µM.
With `CCn1c(-c2c(Cl)cc(O)cc2Cl)cc2c(Cl)cc(O)cc21`, the TGI is above 100 µM in experiment [1]; 13 µM in experiment [2]; 21.7 µM in experiment [8]; 12.5 µM in experiment [4]; 25.2 µM in experiment [5]; above 100 µM in experiment [6]. Also, in experiment [7], the TGI was 30.1 µM.
